The source of these data is patent publication US20200093843A1, “COMPOUNDS FOR TREATMENT OF INTRACTABLE EPILEPSY AND DOORS SYNDROME” (VIB VZW, priority 2016, published 2020).

Entries after “also recorded” stand apart in the source; their conditions may differ.

For series [1] the following is noted: described in literature; listed as erufosine; cited from earlier work.
Series [2] concerns the target T1, Sky1-353 R281C mutant (Drosophila melanogaster, UniProt Q9VIH7, R281C).
T1 construct: the TBC domain of Sky (Sky1-353) was expressed from the pET28a vector (Novagen) as an N-terminal His6-tag fusion; His6 (N); made in house; host or cells: E. coli C41 (DE3)
The experiment in a line: Thermal shift assay, IP3 binding to Sky1-353 R281C. Particulars: saturating amount of IP3, R281C mutant. As to the method: (§1) The thermal stability of the R79C and R281C mutants in absence of ligands (Tm=32° C.) is somewhat lower compared to the wild type protein (Tm=34° C.) and the R335P mutant (Tm=35° C.). […] These experimental data moreover correspond with our structural data where R79 and R281 both form bifurcated electrostatic interactions with the phosphate on position 5, while R335 forms a single electrostatic interaction with the phosphate group on position 1 (FIG. 3e).
(§2) Thermal unfolding was detected by following SYPRO orange fluorescence using a CFX connect Real-Time PCR System (BioRad). […] The temperature was increased from 20° C. to 80° C. at 0.5° C./30s steps. All measurements were done in triplicate.

Series [3] deals with T2, Sky1-353 R79C mutant (Drosophila melanogaster, UniProt Q9VIH7, R79C).
T2 construct: the TBC domain of Sky (Sky1-353) was expressed from the pET28a vector (Novagen) as an N-terminal His6-tag fusion; His6 (N); made in house; host or cells: E. coli C41 (DE3)
T2 sequence (Q9VIH7 1-353 R79C): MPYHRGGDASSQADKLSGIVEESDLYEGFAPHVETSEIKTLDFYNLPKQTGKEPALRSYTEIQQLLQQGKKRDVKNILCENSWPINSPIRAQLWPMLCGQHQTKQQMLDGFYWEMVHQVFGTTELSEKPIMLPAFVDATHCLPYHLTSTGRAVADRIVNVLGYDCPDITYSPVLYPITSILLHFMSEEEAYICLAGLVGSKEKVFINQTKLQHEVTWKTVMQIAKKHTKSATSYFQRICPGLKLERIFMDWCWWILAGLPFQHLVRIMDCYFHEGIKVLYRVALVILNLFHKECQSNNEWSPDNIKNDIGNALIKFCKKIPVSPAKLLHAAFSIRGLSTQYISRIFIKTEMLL
The experiment in a line: Thermal shift assay, IP3 binding to Sky1-353 R79C. As to the method: as §1, §2

In series [4] the target is T3, wild type Sky1-353 (TBC domain of Skywalker) (Drosophila melanogaster, UniProt Q9VIH7).
T3 construct: the TBC domain of Sky (Sky1-353) was expressed from the pET28a vector (Novagen) as an N-terminal His6-tag fusion; His6 (N); made in house; host or cells: E. coli C41 (DE3)
T3 sequence (Q9VIH7 1-353): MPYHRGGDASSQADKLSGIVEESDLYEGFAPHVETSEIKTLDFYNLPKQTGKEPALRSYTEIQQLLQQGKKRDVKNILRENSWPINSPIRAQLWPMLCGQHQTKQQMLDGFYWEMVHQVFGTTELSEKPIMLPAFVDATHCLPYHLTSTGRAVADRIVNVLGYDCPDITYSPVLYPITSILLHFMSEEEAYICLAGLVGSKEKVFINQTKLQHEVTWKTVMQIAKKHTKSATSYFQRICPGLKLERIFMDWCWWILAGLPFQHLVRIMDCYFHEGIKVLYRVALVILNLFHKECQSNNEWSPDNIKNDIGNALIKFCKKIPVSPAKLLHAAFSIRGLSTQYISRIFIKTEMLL
The series is described as follows: Thermal shift assay, ligand binding to wild type Sky1-353. As to the method: as §2

Series [5] addresses T4, Sky1-353 R335P mutant (Drosophila melanogaster, UniProt Q9VIH7, R335P).
T4 construct: the TBC domain of Sky (Sky1-353) was expressed from the pET28a vector (Novagen) as an N-terminal His6-tag fusion; His6 (N); made in house; host or cells: E. coli C41 (DE3)
The series is described as follows: Thermal shift assay, IP3 binding to Sky1-353 R335P. How it is done:
as §1, §2

Series [6] deals with T5, 5′-phosphatase domain of Synaptojanin-1 (Homo sapiens, UniProt O43426).
T5 construct: made in house
T5 sequence (O43426 528-873): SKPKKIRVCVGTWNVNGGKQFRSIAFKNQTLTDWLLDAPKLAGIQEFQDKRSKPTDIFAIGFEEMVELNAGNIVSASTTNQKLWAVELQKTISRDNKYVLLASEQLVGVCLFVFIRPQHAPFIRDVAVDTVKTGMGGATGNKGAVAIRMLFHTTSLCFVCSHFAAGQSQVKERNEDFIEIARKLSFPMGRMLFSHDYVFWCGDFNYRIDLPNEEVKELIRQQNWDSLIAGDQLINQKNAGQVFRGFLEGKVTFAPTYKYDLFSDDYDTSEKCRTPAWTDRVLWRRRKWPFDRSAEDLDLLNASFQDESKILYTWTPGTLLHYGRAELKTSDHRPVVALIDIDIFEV
The series is described as follows: Malachite Green phosphatase assay. The class given is biochemical. Particulars: 1 mM compound, 1% DMSO, 40 μM IP3 substrate, 1 h, background subtracted. The text has this: First, an expression plasmid for the recombinant expression of the 5′-phosphatase domain of Synj1 (SEQ ID NO:1) was constructed. […] A commercially available assay in a 96-well plate format is the Malachite Green Phosphate Assay Kit (BioAssay Systems).
After assay optimization, the assay is used to measure inhibitory activity of known compounds as well as to further allow a high-throughput setup for compound screening.
The Malachite Green Phosphate Assay Kit (BioAssay Systems) is a discontinuous assay that measures the concentrations of enzymatically released phosphate after formation of a complex with malachite green and molybdate (absorbance is measured at 620 nm). […] As a read-out the Absorbance at 620 nm after 60 min incubation is measured and the background starting signal is subtracted. For inhibitory compound screening, 1 mM of the test compound dissolved in 1% DMSO was used.

Series [7] relates to sky^1/2 mutants expressing Sky^R79C. The experiment in a line: Seizure assay in drug-fed flies. The class given is in vivo, Drosophila. Particulars: for rescue of seizure-like behaviour: versus mock-treated. As to the method: To assure that stimulation of PI(4,5)P2 levels in vivo can rescue the defects associated with the Skywalker cationic pocket mutants (Sky^R79C), a commercially available alkyl phospholipid compound, Miltefosine, with known impact on PI(4,5)P2 levels was tested for treatment of gender selected adult 4-7 day old sky^1/2 flies with cationic pocket mutations. For drug feeding, 10-20 flies per treatment vial were maintained in a 12 h light and dark cycle to maintain circadian rhythm, while the analysis was performed on 5 flies per vial for flight, after acclimatization to the test chamber, and 10 flies per vial for stimulation or behavioural challenge by vortexing. In total n=20 flies were analyzed per treatment as well as for the control flies reared on normal food (mock-treated). The effect of Miltefosine (Sigma, M5571) daily administered in dyed food at 50 μg/mL or at 100 μg/mL was tested over a feeding period of 2 and 8 days of drug exposure, after which animal behaviour was analyzed via flight and seizure assays.
Each data point represents averages of 10 animals tested over 8 days and analyzed per drug treatment as well as the control flies reared on normal food (mock-treated).
For drug treatment, a concentration range between […] was tested for daily administration. […] Treatments were performed and were tested over a feeding period of 2 and 8 days of drug exposure, after which animal behaviour was tested in flight and seizure assays.
Adult flies of the genotype sky^1/sky^2 (sky^1/2); nsyb-Gal4/UAS-Sky^R79C or genotypes as indicated, were raised at 21° C. on standard fly food, containing the indicated drugs (Miltefosine, Perifosine, Edelfosine, Erufosine) or on control food prepared without drugs. Animals were collected and gender selected 2 to 5 days after enclosure. On days 2 and 8 of incubation on drugs, flight assays were performed with groups of 5 gender-selected animals in each transparent vial. Following a tap to collect the animals at the bottom of the vial, behaviour was distinguished between walking, jumping and flight. Seizure assays were performed with groups of 10 gender-selected animals that were transferred into transparent vials and excited by vortexing once for 10 seconds in behaviour studies, or in a sequence (1 minute vortexing, 1 minute rest, 1 minute vortexing) for drug treatment studies. This test sequence was repeated following 5 minutes of rest. Active and fallen flies were quantified over the course of the following minute. To ensure natural behaviour animals were not anesthetized on the day of experiments or over the course of drug application.

The target in series [8] is T6, wild type Sky1-353 (Drosophila melanogaster, UniProt Q9VIH7).
T6 construct: the TBC domain of Sky (Sky1-353) was expressed from the pET28a vector (Novagen) as an N-terminal His6-tag fusion; His6 (N); made in house; host or cells: E. coli C41 (DE3)
T6 sequence (Q9VIH7 1-353): T3 sequence (Q9VIH7 1-353)
The series is described as follows: Liposome flotation assay. The class given is binding. Particulars: for binding of Sky1-353 to liposomes: PC:PS liposomes enriched with 2% of the indicated phosphoinositide. The text has this:
TBC1D24 and Skywalker regulate vesicle trafficking, a process that requires membrane interactions^20,24,30. We therefore hypothesized that the positively charged pocket of Sky serves as a binding module to negatively charged membranes. We used a liposome flotation assay and mixed Sky1-353 with liposomes produced from Folch-extracted total brain lipids and centrifuged the sample in a sucrose gradient. After recovering six fractions from the top to the bottom of the centrifugation tube we find that Sky1-353 is present in the top fractions that contain the liposomes. […] A major class of lipids that regulates presynaptic activity are phosphoinositides^31. Lipid strip interaction experiments using Sky1-353 are indeed compatible with Sky interacting with phosphoinositides. We therefore resorted to liposome flotation assays using liposomes composed of phosphatidylcholine and phosphatidylserine and supplemented with different types of phosphoinositides (FIG. 3b). […] Moreover, the binding can be reversed by adding increasing concentrations of salt, as would be expected from binding that is mainly driven by electrostatic interactions.
Liposomes were prepared using either Folch brain total lipid extract or using a mix of phosphatidylcholine and phosphatidylserine (80:20 ratio) supplemented with 0.5%, 2% or 5% of a specific phosphoinositide as indicated. The liposomes were subsequently incubated with 6 μg of wild-type or mutant Sky1-353. PI(4,5)P2-Grip (Echelon Biosciences, Salt Lake City, USA) was used as a positive control. Subsequently, this mix was loaded on a sucrose cushion (30% sucrose layer, 25% sucrose layer and HP30 buffer layer) and centrifuged. Individual fractions from the top to the bottom were collected and assayed using Western blotting against His6 (Sky) or GST (PI(4,5)P2-Grip).

[9] abbreviates: PI(4,5)P2 varied from 0% to 5% in liposomes.

T4 sequence (Q9VIH7 1-353 R335P): as the sequence (Q9VIH7 1-353 R79C) above, with C79R, R335P counted along it
T1 sequence (Q9VIH7 1-353 R281C): as the sequence (Q9VIH7 1-353 R79C) above, with C79R, R281C counted along it

For `CCCCCCCC/C=C\CCCCCCCCCCCCOP(=O)([O-])OCC[N+](C)(C)C` [Erufosine], the blood-brain-barrier crossing result in series [1] was “known to allow BBB crossing”.

As usually defined, the Kd is the concentration at which binding is half-saturated. In the case of `O=P(O)(O)O[C@@H]1[C@H](O)[C@H](O)[C@@H](OP(=O)(O)O)[C@H](OP(=O)(O)O)[C@H]1O` [IP3, inositol 1,4,5-trisphosphate], the “increase in thermal stability” value in series [2] was determined as 4 °C; in series [3] (saturating amount of IP3, R79C mutant) it was 4 °C; in series [5] (saturating amount of IP3, R335P mutant) it was 8 °C. In addition, the results for the Kd in series [3], in series [4] and in series [5] were 325 ± 200 µM, 19 ± 3 µM and 67 ± 17 µM, respectively.

In the case of `CCCCCCCCCCCCCCCCOP(=O)([O-])OCC[N+](C)(C)C` [Miltefosine], in series [6], the “inhibition of 5′-phosphatase activity” value is on record as “effective inhibitors; also recorded: complete inhibition”. For the same molecule, the “rescue of seizure-like behaviour” value is “highly significant; also recorded: significant rescue of seizure-like behaviour” in series [7] (50 μg/mL in food, 2 days of drug feeding, p<0.001); “lasted at least up to 8 days after treatment; also recorded: significant rescue of seizure-like behaviour” in series [7] (50 μg/mL in food, 8 days of drug feeding, p<0.1); “did not lead to significant difference” in series [7] (100 μg/mL in food (probably toxic), 2 or 8 days).

For `CCCCCCCCCCCCCCCCCCOP(=O)([O-])OC1CC[N+](C)(C)CC1` [Perifosine], the “inhibition of 5′-phosphatase activity” value in series [6] is recorded as “effective inhibitors”; in series [6] (listed as Perisofine), “complete inhibition”. Also, the effect on seizures entry in series [7] (1000 μg/mL daily in dyed food, up to 8 days) was “positive effect”.

In the case of PI(3)P, in series [8], the “binding of Sky1-353 to liposomes” value is recorded as “does not bind”.

On to PI(3,4,5)P3, for which, in series [8], the “binding of Sky1-353 to liposomes” value is reported as “strongest binding”.

On to PI(4)P, for which the “binding of Sky1-353 to liposomes” value in series [8] is “weak but significant binding”.

On to PI(5)P, for which, in series [8], the “binding of Sky1-353 to liposomes” value is given as “weak but significant binding”.

Regarding “phosphatidylinositol 4,5-bisphosphate [PI(4,5)P2]”, in series [8], the “binding of Sky1-353 to liposomes” value is given as “strongest binding”. Moreover, in series [8] (setting [9]), the “PI(4,5)P2 concentration at which full binding is reached” value is reported as 2% and the “lowest PI(4,5)P2 concentration at which binding is observed” value came out at 0.5%.

For phosphatidylinositol [PI], the “binding of Sky1-353 to liposomes” value in series [8] was “does not bind”.
